The supplement of paper PMC10307832

What was measured:
Test in all cases: relative viability (nuclei count vs DMSO), 5 days (fraction); higher = more cells survive
[1] = compound: NC1(c2ccc(-c3nc4ccn5c(=O)[nH]nc5c4cc3-c3ccccc3)cc2)CCC1 [MK-2206] + O=C(c1cc(Cc2n[nH]c(=O)c3ccccc23)ccc1F)N1CCN(C(=O)C2CC2)CC1 [Olaparib] (partner 8 µM)
In short: (§1)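 A single step with final 0.05% Triton X-100, 1% formaldehyde and 1 ug/ml Hoechst fixed the cells and stained nuclei 5 days after treatment. Lung cancer cell lines in 1536-well plates had been treated by pin tool the day after seeding with one drug alone or a fixed anchor-drug dose plus five library-drug doses (not always all listed) in √10 steps, and nuclei were counted on 4× images. Relative viability is the ratio of nuclei in treated wells to nuclei in vehicle wells, taken as the median of duplicate plates.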

[2] = compound: NC1(c2ccc(-c3nc4ccn5c(=O)[nH]nc5c4cc3-c3ccccc3)cc2)CCC1 [MK-2206] + Cc1nc(Nc2ncc(C(=O)Nc3c(C)cccc3Cl)s2)cc(N2CCN(CCO)CC2)n1 [Dasatinib] (partner 0.075 µM)
In short: as §1

[3] = compound: NC1(c2ccc(-c3nc4ccn5c(=O)[nH]nc5c4cc3-c3ccccc3)cc2)CCC1 [MK-2206] + CC(=O)c1c(C)c2cnc(Nc3ccc(N4CCNCC4)cn3)nc2n(C2CCCC2)c1=O [Palbociclib] (partner 0.5 µM)
In short: as §1

[4] = compound: NC1(c2ccc(-c3nc4ccn5c(=O)[nH]nc5c4cc3-c3ccccc3)cc2)CCC1 [MK-2206] + CS(=O)(=O)N1CCN(Cc2cc3nc(-c4cccc5[nH]ncc45)nc(N4CCOCC4)c3s2)CC1 [Pictilisib] (partner 1 µM)
In short: as §1

[5] = compound: CS(=O)(=O)N1CCN(Cc2cc3nc(-c4cccc5[nH]ncc45)nc(N4CCOCC4)c3s2)CC1 [Pictilisib] + C[C@@H](Oc1cc(-c2cnn(C3CCNCC3)c2)cnc1N)c1c(Cl)ccc(F)c1Cl [Crizotinib] (partner 1 µM)
In short: as §1

Row | Cell Line | relative viability ([1]; first compound 0.01 µM) | relative viability ([1]; first compound 0.03162 µM) | relative viability ([1]; first compound 0.3162 µM) | relative viability ([1]; first compound 1 µM) | relative viability ([2]; first compound 0.01 µM) | relative viability ([2]; first compound 0.03162 µM) | relative viability ([2]; first compound 0.3162 µM) | relative viability ([2]; first compound 1 µM) | relative viability ([3]; first compound 0.01 µM) | relative viability ([3]; first compound 0.03162 µM) | relative viability ([3]; first compound 0.3162 µM) | relative viability ([3]; first compound 1 µM) | relative viability ([4]; first compound 0.01 µM) | relative viability ([4]; first compound 0.03162 µM) | relative viability ([4]; first compound 0.3162 µM) | relative viability ([4]; first compound 1 µM) | relative viability ([5]; first compound 0.02 µM) | relative viability ([5]; first compound 0.06325 µM) | relative viability ([5]; first compound 0.6325 µM) | relative viability ([5]; first compound 2 µM)
1 | NCI-H2170 | 0.617 | 0.585 | 0.597 | 0.558 | 0.611 | 0.504 | 0.625 | 0.559 | 0.4 | 0.391 | 0.354 | 0.343 | 0.367 | 0.363 | 0.309 | 0.262 | 1.19 | 1.09 | 0.973 | 0.617
2 | NCI-H2228 | 0.832 | 0.594 | 0.464 | 0.417 | 0.533 | 0.485 | 0.355 | 0.266 | 0.586 | 0.848 | 0.487 | 0.725 | 0.356 | 0.455 | 0.198 | 0.297 | 0.437 | 0.473 | 0.311 | 0.168
3 | NCI-H2347 | 0.618 | 0.541 | 0.58 | 0.503 | 0.381 | 0.315 | 0.281 | 0.254 | 0.418 | 0.415 | 0.39 | 0.3 | 0.384 | 0.67 | 0.634 | 0.652 | 0.695 | 0.496 | 0.592 | 0.545
4 | NCI-H2405 | 0.837 | 0.899 | 0.875 | 0.825 | 0.208 | 0.241 | 0.182 | 0.231 | 0.512 | 0.534 | 0.532 | 0.481 | 0.418 | 0.421 | 0.361 | 0.282 | 0.884 | 0.854 | 0.745 | 0.558
5 | NCI-H3122 | 0.681 | 0.687 | 0.656 | 0.63 | 0.801 | 0.789 | 0.84 | 0.118 | 0.187 | 0.179 | 0.201 | 0.193 | 0.542 | 0.558 | 0.491 | 0.434 | 0.258 | 0.253 | 0.194 | 0.186
6 | PC-3 [JPC-3] | 1.09 | 1.12 | 1.18 | 1.12 | 0.968 | 1.01 | 1.06 | 0.934 | 0.5 | 0.509 | 0.535 | 0.519 | 0.774 | 0.874 | 0.776 | 0.676 | 0.983 | 0.969 | 1.03 | 0.905
7 | PC-14 | 0.274 | 0.313 | 0.371 | 0.354 | 0.289 | 0.346 | 0.27 | 0.294 | 0.512 | 0.481 | 0.589 | 0.474 | 0.635 | 0.627 | 0.648 | 0.514 | 0.909 | 0.928 | 0.926 | 0.681
8 | RERF-LC-KJ | 0.885 | 0.93 | 0.874 | 0.81 | 0.788 | 0.796 | 0.607 | 0.626 | 0.954 | 1.13 | 1 | 1.06 | 0.586 | 0.481 | 0.553 | 0.445 | 0.845 | 0.875 | 0.816 | 0.635
9 | SK-LU-1 | 0.47 | 0.457 | 0.47 | 0.371 | 0.196 | 0.19 | 0.198 | 0.151 | 0.431 | 0.433 | 0.375 | 0.353 | 0.584 | 0.478 | 0.535 | 0.474 | 0.957 | 1.17 | 0.945 | 0.697
10 | SK-MES-1 | 0.635 | 0.727 | 0.692 | 0.482 | 0.396 | 0.437 | 0.356 | 0.425 | 0.327 | 0.296 | 0.289 | 0.256 | 0.37 | 0.34 | 0.354 | 0.352 | 1.04 | 0.971 | 0.804 | 0.492
11 | SW 1573 | 0.5 | 0.466 | 0.396 | 0.393 | 0.431 | 0.554 | 0.364 | 0.419 | 0.571 | 0.335 | 0.294 | 0.298 | 0.453 | 0.548 | 0.424 | 0.457 | 0.817 | 0.791 | 0.626 | 0.268
